Results: patent US20100197789A1, “ANTI-OBESITY AGENT AND USE THEREOF” (National University Corporation Nagoya University, priority 2006, published 2010)

System: DIO mice
Assay: Food intake amount and body weight, 5 week-continuous oral administration, diet-induced obese (DIO) mice
Format: in vivo, mouse
Conditions: (±)-baclofen 5 mg/kg/day, SKF97541 0.3 mg/kg/day, 3-APPA 5 mg/kg/day
Description: 5 week-old male C57BL/6N mice (body weight 17 to 20 g, CLEA Japan, Inc.) were purchased and individually fed in tip cages. To the mice, normal pellet diet (CE-2) was administered under free water intake and free food intake. A body weight and a food intake amount over 24 hours were measured every day from the start of feeding. On day 3 after the start of feeding, blood was taken from an orbit after 6 hour-fasting and a blood glucose level and a blood insulin concentration were measured. The mice were divided into a control group and a baclofen treated group (10 mice per each group) so that a body weight, a 24 hour-food intake amount, a blood glucose level, and a blood insulin concentration were equal, and diet induced-obesity (DIO) was started to be induced by administration of high fat diet (High Fat Diet 32, energy fat ratio 60%, CLEA Japan, Inc.) (DIO mice). At the same time as the start of administering the high fat diet, (±)-baclofen was dissolved in drinking water and 5 week-continuous oral administration was started in a dosage of 5 mg per 1 kg of a body weight in 1 day (5 mg/kg/day). A food intake amount and a body weight were measured over time during the 5 week-administration period. (±)-baclofen (5 mg/kg/day) was orally administered also to C57BL/6N mice (lean mice) that are non-obese mice to which normal diet was administered in the same manner as described above, and a food intake amount and a body weight were measured over time.
5 week-old male C57BL/6N mice (body weight 17 to 20 g, CLEA Japan, Inc.) were purchased and individually fed in tip cages. Normal pellet diet (CE-2) was administered to the mice under free water intake and free food intake. A body weight and a food intake amount over 24 hours were measured every day from the start of feeding. On day 3 after the start of feeding, blood was taken from an orbit after 6 hour-fasting and a blood glucose level and a blood insulin concentration were measured. The mice were divided into a control group, an SKF97541 treated group and a 3-APPA treated group (10 mice per each group) so that a body weight, a 24 hour-food intake amount, a blood glucose level, and a blood insulin concentration were equal, and diet induced-obesity (DIO) was started to be induced by administration of high fat diet (High Fat Diet 32, energy fat ratio 60%, CLEA Japan, Inc.) (DIO mice). At the same time as the start of administering the high fat diet, SKF97541 (0.3 mg/kg/day) or 3-APPA (5 mg/kg/day) was dissolved in drinking water and 5 week-continuous oral administration was started. A food intake amount and a body weight were measured over time during the 5 week-administration period. SKF97541 (0.3 mg/kg/day) or 3-APPA (5 mg/kg/day) was orally administered also to C57BL/6N mice (lean mice) to which normal diet was administered in the same manner as described above, and a food intake amount and a body weight were measured over time.

[1] = DIO mice (high fat diet), oral in drinking water 5 weeks
[2] = DIO mice, continued until 5 weeks

`NCC(CC(=O)O)c1ccc(Cl)cc1` (racemic) [(±)-baclofen, (RS)-4-amino-3-(4-chlorophenyl)butanoic acid] was tested, and the body weight increase [1] was “significantly suppressed”, the food intake amount [1] was “significantly suppressed” and the “time after start of administration from which body weight increase suppression was significant” value [2] was 1 week. For the same compound, the “time after start of administration from which food intake suppression was significant” value [2] was 1 week.
